In series [1] the test system is Groα secretion by HT-29 cells. In words: Inhibition of Groα secretion by HT-29 cells stimulated with IL-17A (ELISA). The format is cell-based, Human. The settings on record: Homo sapiens, IL-17A 30 ng/ml, Groα in supernatant. The procedure: Test example 2 Assay for inhibitory effect of compounds of the present invention against Groα secretion by HT-29 cells
Experimental objective: to measure the inhibitory effect of the compounds against Groα secretion by HT-29 cells, thereby evaluating the inhibition of the compounds on IL-17A pathway.
Experimental method: A cell suspension at 50,000 cells/ml was prepared, and 200 µl of the cell suspension was added to each well of a 96-well plate, i.e., 10,000 cells/well. The plate was cultured overnight. In the 96-well V-bottom plate, 5 mM compound solution was serially diluted 3-fold using DMSO, and the compound from each well was diluted 100-fold using a complete culture medium. IL-17A protein (R&D, #BT7955-025/CF) with a stock concentration of 100 µg/ml was diluted 333.33-fold using a complete culture medium. The compound and IL-17A were mixed at a volume ratio of 1:1 and incubated at 37°C for 30 minutes. 50 µl of a mixture of the compound and IL-17A was added to cell wells, and the final concentration of IL-17A protein was 30 ng/ml.
The mixture was incubated in a 37°C, 5% CO2 cell culture incubator for 48 hours. The concentration of Groα in the supernatant was determined by ELISA method using Human Groα Valukin Elisa kit (Biotechne, # VAL139), and the absorbance intensity at 450 nm was measured using a microplate reader (PE, EnVision2105). Data were analysed using GraphPad Prism 8.3.0.
Experimental data processing method: Data were analysed using GraphPad Prism 8.3.0.
Inhibition rate% = [(average value of positive control wells - value of sample wells)/(average value of positive control wells - average value of negative control wells)] × 100%, where the sample wells are wells containing cells plus compounds at different concentration gradients, the positive control wells are wells containing cells plus IL-17A, and the negative control wells are wells containing culture medium plus IL-17A.
Curve fitting: The IC50 value was obtained by curve fitting based on the inhibition rate (%) at each concentration using the log(inhibitor) vs. responseVariable slope (four parameters) in GraphPad Prism 6.0, and the calculation equation was Y = Bottom + (Top-Bottom)/(1+10^((LogIC50-X)*HillSlope)).

The nature of series [2]: Pharmacokinetic assay in Wistar rats, oral. Conditions: rat, 30 mg/kg.
Method: Experimental objective: to study the pharmacokinetic behaviours of the compounds of the present invention in the body (plasma) of Wistar rats as test animals after oral administration at a dose of 30 mg/kg. • 2. Experimental scheme • 2.1 Test drugs: the examples of the present invention, prepared in house. • 2.2 Test animals: Wistar rats (female, 3 rats per group), from Beijing Vital River Laboratory Animal Technology Co., Ltd., with the animal production license no.
Solutol HS15 was melted in a water bath at 50-60°C, and then 50 mL of the melted Solutol HS15 was added to 450 mL of ultrapure water. The mixture was stirred and sonicated to obtain 500 mL of 10% Solutol HS15 solution. The compound was weighed, and according to the total administration volume, 30% PEG solution was first added. The mixture was shaken uniformly and sonicated until a clear solution was obtained. Subsequently, 70% (10% Solutol) in water was added, resulting in a colourless and clear solution with a concentration of 3.0 mg/mL.
2.4 Administration scheme: After overnight fasting, 3 female Wistar rats per group were administered orally (PO) at a dose of 30 mg/kg with an administration volume of 10 mL/kg.
• 1) To 50 uL of plasma sample was added 250 uL of acetonitrile for precipitation, and the mixture was mixed and then centrifuged at 4°C at 4000 rpm for 20 minutes. • 2) The treated supernatant solution was taken and subjected to LC/MS/MS to analyse the concentration of the test compounds. LC/MS/MS analysis instrument: AB Sciex API-4000 Qtrap-Shimadzu Controller-CBM20A.
• Chromatographic column: Waters Xbridge C18 3.5 um 2.1*50 mm • Mobile phase: solution A: 0.1% formic acid in water, and solution B: 0.1% formic acid in acetonitrile • Flow rate: 0.6 mL/min • Elution time: 0-3.5 minutes, with eluents as follows:

Each structure is given as a SMILES string.

For `[2H]C([2H])([2H])C([2H])([2H])n1nccc1C(=O)N[C@H](C(=O)Nc1ncc([C@@H](CN2CCO[C@H](C)C2)N2CC(F)(F)CCC2=O)s1)[C@H]1CC[C@H](C)CC1` [Example 627, N-((S)-2-((5-((R)-1-(5,5-difluoro-2-oxopiperidin-1-yl)-2-((R)-2-methylmorpholino)ethyl)thiazol-2-yl)amino)-1-((1r,4S)-4-methylcyclohexyl)-2-oxoethyl)-1-(ethyl-d5)-1H-pyrazole-5-carboxamide], 6.3 nM corresponded to half-maximal inhibition in series [1] (48 hours) (IC50). Moreover, in series [2] (plasma), the AUC(0-t) was determined as 22100 ng·h/mL, the Cmax turned out to be 2530 ng/mL, the time of peak concentration (Tmax) was determined as 4 h and the half-life was 3.2 h.

Regarding `[2H]C([2H])([2H])C([2H])([2H])n1nccc1C(=O)N[C@H](C(=O)Nc1ncc([C@@H](CN2CCO[C@@H](C)C2)N2CC(F)(F)CCC2=O)s1)[C@H]1CC[C@H](C)CC1` [Example 628], the IC50 in series [1] (48 hours) turned out to be 6.7 nM. For the same compound, in series [2] (in vivo), the AUC(0-t) came out at 20900 ng·h/mL, the Cmax came out at 2270 ng/mL, the time to peak (Tmax) was found to be 4 h and the half-life is 3.3 h.

`CCn1nccc1C(=O)N[C@H](C(=O)Nc1ncc([C@@H](CN2CCC(OC)CC2)N2CC(F)(F)CCC2=O)s1)[C@H]1CC[C@H](C)CC1` [Example 646]: 8 nM corresponded to half-maximal inhibition in series [1] (HT-29, 48 h) (IC50). In addition, in series [2] (in vivo), the AUC(0-t) worked out at 19800 ng·h/mL, the concentration peaked (Cmax) at 3830 ng/mL, the Tmax is 2 h and the half-life was 2.4 h.

`C[C@H]1CC[C@H]([C@H](NC(=O)C2(F)CC2)C(=O)Nc2ncc([C@@H](CN3CCC(C(F)(F)F)CC3)N3CC(F)(F)CNC3=O)s2)CC1` [Example 774, N-((S)-2-((5-((R)-1-(5,5-difluoro-2-oxotetrahydropyrimidin-1(2H)-yl)-2-(4-(trifluoromethyl)piperidin-1-yl)ethyl)thiazol-2-yl)amino)-1-((1r,4S)-4-methylcyclohexyl)-2-oxoethyl)-1-fluorocyclopropane-1-carboxamide]: in series [1] (HT-29, 48 h), the midpoint of inhibition, the IC50, lay at 5 nM. For the same compound, in series [2] (in vivo), the AUC(0-t) turned out to be 24400 ng·h/mL, the maximum concentration (Cmax) worked out at 2310 ng/mL, the Tmax was found to be 4 h and the half-life was 4.5 h.

In series [1] (HT-29, 48 h), `[2H]C([2H])([2H])C([2H])([2H])n1nccc1C(=O)N[C@H](C(=O)Nc1ncc([C@@H](CN2CCOC[C@@H]2C)N2CC(F)(F)CCC2=O)s1)[C@H]1CC[C@H](C)CC1` [Example 816] returned a half-maximal inhibitory concentration (IC50) of 4.6 nM. In series [2] (in vivo), the AUC(0-t) was found to be 28400 ng·h/mL, the Cmax turned out to be 2540 ng/mL, the Tmax is 4 h and the half-life was 3.8 h.

As for `[2H]C([2H])([2H])C([2H])([2H])n1nccc1C(=O)NC(C(=O)Nc1ncc(C(CN2CCOCC2C)N2CC(F)(F)CCC2=O)s1)C1CCC(C)CC1` (centres unmarked) [Example 818], 2.6 nM corresponded to half-maximal inhibition in series [1] (HT-29, 48 h) (IC50). Also, in series [2] (in vivo), the AUC(0-t) came out at 15500 ng·h/mL, the Cmax came to 2650 ng/mL, the time of peak concentration (Tmax) came out at 2 h and the half-life is 3.1 h.

Turning to `[2H]C([2H])([2H])C([2H])([2H])n1nccc1C(=O)N[C@H](C(=O)Nc1ncc([C@@H](CN2C[C@@H](C)O[C@@H](C)C2)N2CC(F)(F)CCC2=O)s1)[C@H]1CC[C@H](C)CC1` [Example 849, N-((S)-2-((5-((R)-1-(5,5-difluoro-2-oxopiperidin-1-yl)-2-((2R,6S)-2,6-dimethylmorpholino)ethyl)thiazol-2-yl)amino)-1-((1r,4S)-4-methylcyclohexyl)-2-oxoethyl)-1-(ethyl-d5)-1H-pyrazole-5-carboxamide], in series [1] (48 hours), it took 4 nM to reach half-maximal inhibition (IC50). Further, in series [2] (plasma), the AUC(0-t) came to 15500 ng·h/mL, the Cmax came out at 2480 ng/mL, the Tmax came to 2 h and the half-life is 2.8 h.

`[2H]C([2H])([2H])C([2H])([2H])n1nccc1C(=O)N[C@H](C(=O)Nc1ncc([C@@H](CN2C[C@H](C)O[C@@H](C)C2)N2CC(F)(F)CCC2=O)s1)[C@H]1CC[C@H](C)CC1` [Example 854, N-((S)-2-((5-((R)-1-(5,5-difluoro-2-oxopiperidin-1-yl)-2-((2S,6S)-2,6-dimethylmorpholino)ethyl)thiazol-2-yl)amino)-1-((1r,4S)-4-methylcyclohexyl)-2-oxoethyl)-1-(ethyl-d5)-1H-pyrazole-5-carboxamide] registered an IC50 in series [1] (48 hours) of 9 nM. In series [2] (plasma), the AUC(0-t) is 14900 ng·h/mL, the Cmax was 2170 ng/mL, the time of peak concentration (Tmax) was 1 h and the half-life is 3 h.

With `[2H]C([2H])([2H])C([2H])([2H])n1nccc1C(=O)N[C@H](C(=O)Nc1ncc([C@@H](CN2C[C@@H](C)O[C@H](C)C2)N2CC(F)(F)CCC2=O)s1)[C@H]1CC[C@H](C)CC1` [Example 857, N-((S)-2-((5-((R)-1-(5,5-difluoro-2-oxopiperidin-1-yl)-2-((2R,6R)-2,6-dimethylmorpholino)ethyl)thiazol-2-yl)amino)-1-((1r,4S)-4-methylcyclohexyl)-2-oxoethyl)-1-(ethyl-d5)-1H-pyrazole-5-carboxamide], in series [1] (48 hours), the half-maximal inhibitory concentration (IC50) came out at 2.4 nM. Moreover, in series [2] (plasma), the AUC(0-t) was 15900 ng·h/mL, the concentration peaked (Cmax) at 2290 ng/mL, the time to peak (Tmax) came out at 2 h and the half-life was 3.5 h.

As for `[2H]C([2H])([2H])C([2H])([2H])n1nccc1C(=O)NC(C(=O)Nc1ncc(C(CN2CC(C)OCC2C)N2CC(F)(F)CCC2=O)s1)C1CCC(C)CC1` [Example 864, N-((S)-2-((5-((R)-1-(5,5-difluoro-2-oxopiperidin-1-yl)-2-((2R,5S)-2,5-dimethylmorpholino)ethyl)thiazol-2-yl)amino)-1-((1r,4S)-4-methylcyclohexyl)-2-oxoethyl)-1-(ethyl-d5)-1H-pyrazole-5-carboxamide], the half-maximal inhibitory concentration (IC50) in series [1] (HT-29, 48 h) came to 3 nM. In addition, in series [2] (in vivo), the exposure AUC(0-t) was determined as 15700 ng·h/mL, the Cmax amounted to 1600 ng/mL, the time of peak concentration (Tmax) stood at 4 h and the half-life was 3.7 h.

In turn, `[2H]C([2H])([2H])C([2H])([2H])n1nccc1C(=O)N[C@H](C(=O)Nc1ncc([C@@H](CN2CCC(CF)CC2)N2CC(F)(F)CCC2=O)s1)[C@H]1CC[C@H](C)CC1` [Example 928] showed an IC50 in series [1] (HT-29, 48 h) of 4 nM. In series [2] (in vivo), the area under the curve AUC(0-t) was 18900 ng·h/mL, the peak level (Cmax) was 2160 ng/mL, the Tmax is 4 h and the half-life was 4.5 h.

Turning to `[2H]C([2H])([2H])C([2H])([2H])n1nccc1C(=O)N[C@H](C(=O)Nc1ncc([C@@H](CN2CCC(C(F)F)CC2)N2CC(F)(F)CCC2=O)s1)[C@H]1CC[C@H](C)CC1` [Example 938], the 50% inhibitory concentration (IC50) in series [1] (HT-29, 48 h) was 4.4 nM. For the same compound, in series [2] (in vivo), the AUC(0-t) was found to be 12500 ng·h/mL, the peak concentration (Cmax) came to 1240 ng/mL, the time to peak (Tmax) stood at 4 h and the half-life is 6 h.

In series [1] (HT-29, 48 h), `[2H]C([2H])([2H])C([2H])([2H])n1nccc1C(=O)N[C@H](C(=O)Nc1ncc([C@@H](CN2CCC(C(F)(F)F)CC2)N2CC(F)(F)CCC2=O)s1)[C@H]1CC[C@H](C)CC1` [Example 948] registered an IC50 of 6.5 nM. For the same compound, in series [2] (in vivo), the AUC(0-t) stood at 18800 ng·h/mL, the Cmax was determined as 1710 ng/mL, the time of peak concentration (Tmax) came out at 4 h and the half-life was 9.3 h.

`[2H]C([2H])([2H])C([2H])([2H])n1nccc1C(=O)N[C@H](C(=O)Nc1ncc([C@@H](CN2CCC3(CC2)CC3(F)F)N2CC(F)(F)CCC2=O)s1)[C@H]1CC[C@H](C)CC1` [Example 958]: half-maximal inhibition in series [1] (HT-29, 48 h) (IC50) required 2.3 nM. In series [2] (in vivo), the AUC(0-t) came out at 13200 ng·h/mL, the peak level (Cmax) was 1500 ng/mL, the time of peak concentration (Tmax) is 4 h and the half-life is 9.4 h.

In series [1] (HT-29, 48 h), `[2H]C([2H])([2H])OC1CCN(CC(c2cnc(NC(=O)C(NC(=O)c3ccnn3C([2H])([2H])C([2H])([2H])[2H])C3CCC(C)CC3)s2)N2CC(F)(F)CCC2=O)CC1F` (centres unmarked) [Example 992] yielded an IC50 of 3.5 nM. Besides, in series [2] (in vivo), the exposure AUC(0-t) turned out to be 24600 ng·h/mL, the highest level (Cmax) was 4930 ng/mL, the time of peak concentration (Tmax) was 2 h and the half-life is 2.9 h.

`[2H]C([2H])([2H])O[C@@H]1CCN(C[C@H](c2cnc(NC(=O)[C@@H](NC(=O)c3ccnn3C([2H])([2H])C([2H])([2H])[2H])[C@H]3CC[C@H](C)CC3)s2)N2CC(F)(F)CCC2=O)C[C@@H]1F` [Example 994] displayed a 50% inhibitory concentration (IC50) in series [1] (HT-29, 48 h) of 9 nM. Also, in series [2] (in vivo), the area under the curve AUC(0-t) is 13100 ng·h/mL, the concentration peaked (Cmax) at 2000 ng/mL, the time to peak (Tmax) was determined as 4 h and the half-life was 2.4 h.

The values above are taken from patent EP4711365A1 (Shanghai Hansoh Biomedical Co., Ltd., priority 2023, dated 2024).
